Where “and” joins values, the source holds several entries; their conditions need not be identical. Equal values may be shown once.
What was measured:
[1] = biological target: T1, Genome polyprotein (dengue virus type 2, UniProt P29990); format: functional, Thailand/16681/1984
[2] = biological target: T1, Genome polyprotein; format: functional, Thailand/16681/1984; remark: listed apart in the source

T1 sequence (P29990 1346-1475 limits assumed): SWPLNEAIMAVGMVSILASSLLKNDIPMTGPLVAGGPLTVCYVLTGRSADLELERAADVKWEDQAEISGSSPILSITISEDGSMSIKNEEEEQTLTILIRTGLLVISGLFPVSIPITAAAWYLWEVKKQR
T1 sequence (P29990 1476-2093 limits assumed): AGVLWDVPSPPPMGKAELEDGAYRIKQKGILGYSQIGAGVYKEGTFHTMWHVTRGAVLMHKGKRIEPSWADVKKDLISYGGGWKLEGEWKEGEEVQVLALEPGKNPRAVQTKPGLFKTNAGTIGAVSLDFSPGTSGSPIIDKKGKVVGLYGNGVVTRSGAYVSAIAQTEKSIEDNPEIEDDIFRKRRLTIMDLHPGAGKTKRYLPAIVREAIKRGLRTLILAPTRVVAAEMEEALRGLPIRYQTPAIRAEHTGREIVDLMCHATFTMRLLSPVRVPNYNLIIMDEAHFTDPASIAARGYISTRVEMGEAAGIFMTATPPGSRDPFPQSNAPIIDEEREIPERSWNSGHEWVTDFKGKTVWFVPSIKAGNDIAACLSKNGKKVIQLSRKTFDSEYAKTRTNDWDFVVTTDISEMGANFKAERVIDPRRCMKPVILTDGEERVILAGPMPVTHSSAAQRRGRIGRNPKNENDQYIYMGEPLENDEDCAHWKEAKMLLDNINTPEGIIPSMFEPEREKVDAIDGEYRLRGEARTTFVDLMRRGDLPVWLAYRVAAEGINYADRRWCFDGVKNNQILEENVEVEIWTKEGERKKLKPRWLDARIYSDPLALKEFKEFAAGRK

SMILES | IC50 [1] | IC50 [2]
CN(c1ccc2c(c1)CNC2)[C@H](C(=O)NCC(F)F)c1cc(Cl)cc(C2CC2)c1 | > 99.5 µM | > 100 µM
CCOC(=O)[C@H](Nc1ccc2c(c1)CNC2)c1cc(Cl)cc(C2CC2)c1 | 76.7 µM | 89.8 µM
COC1CCN(C(=O)c2ccnc(NC(=O)c3cc(C4CC4)n(C)c3C)c2)CC1 | > 99.5 µM | > 100 µM
O=C(NCC(F)F)[C@H](Nc1ccc2c(c1)CNC2)c1cc(Cl)ccc1Sc1ccccc1 | > 99.5 µM | > 100 µM
CSc1cc2c(cc1NC(=O)c1cc(F)cc3[nH]ncc13)CNC2 | 71.1 µM | > 100 µM
Cc1c(C(=O)Nc2cc(C(=O)N[C@H]3CNC(=O)C3)ccn2)cc(C2CC2)n1C | > 99.5 µM | > 100 µM
Cc1c(C(=O)Nc2cc(C(=O)N3CCC[C@H]3C(N)=O)ccn2)cc(C2CC2)n1C | > 99.5 µM | > 100 µM
COC1CN(C(=O)c2ccnc(NC(=O)c3cc(C4CC4)n(C)c3C)c2)C1 | > 99.5 µM | > 100 µM
Cc1cc(C(=O)Nc2ccc3c(c2)CNC3)cc2nc[nH]c12 | > 99.5 µM | > 100 µM
CC(C)(C)OC(=O)N1Cc2cc(NC(=O)c3cc(Cl)cc4c3cnn4[C@@H]3CCCCO3)ccc2[C@H]1CO | > 99.5 µM | > 100 µM
O=C(Nc1ccc2c(c1)CNC2)c1ccc2[nH]cc(C3CCNCC3)c2c1 | 19.5 µM and 31.3 µM | 75.9 µM
O=C1Cc2c(cccc2C(=O)Nc2ccc3c(c2)CCNCC3)N1 | 21 µM | 33.8 µM
C[C@]1(OCCCO)C(=O)Nc2cc(F)cc(C(=O)Nc3ccc4c(c3)CNC4)c21 | > 99.5 µM | > 100 µM
COCc1cc(Cl)cc([C@H](Nc2ccc3c(c2)CNC3)C(=O)NCC(F)F)c1 | > 99.5 µM | > 100 µM
N#Cc1ccc(-c2nc3c(C(=O)Nc4ccc5c(c4)CNC5)cc(F)cc3[nH]2)cc1 | 2.9 µM and 2.52 µM | 11.3 µM and 10.2 µM
O=C(Nc1cc(-c2cccnc2)ccn1)c1cc(C2CC2)[nH]c(=O)c1 | > 99.5 µM | > 100 µM
C=CC[C@H]1c2ccc(NC(=O)c3cc(Br)cc4[nH]ccc34)cc2CN1C(=O)OC(C)(C)C | > 99.5 µM | > 100 µM
CCNC(=O)c1ccnc(NC(=O)c2cc(C3CC3)n(C)c2C)c1 | > 99.5 µM | > 100 µM
O=C(Nc1cnc2c(c1)CNC2)c1cc(F)cc2[nH]ncc12 | 36.5 µM | 46.6 µM and 49.7 µM
O=C(NCC(F)F)[C@H](Nc1ccc2c(c1)CNC2)c1cccc(Cl)c1 | > 99.5 µM | > 100 µM
CC(C)CO[C@]1(C)C(=O)Nc2cc(F)cc(C(=O)Nc3ccc4c(c3)CNC4)c21 | > 99.5 µM | > 100 µM

SMILES | IC50 [1] | IC50 [2]
Cc1cc(C(=O)Nc2ccc3c(c2)CNC3)cc2nn[nH]c12 | > 99.5 µM | > 100 µM
CC(C)c1nnc(-c2nc3c(C(=O)Nc4ccc5c(c4)CNC5)cc(F)cc3[nH]2)s1 | 35.2 µM and 34.8 µM | 64.1 µM and 67.1 µM
N[C@H]1COC[C@H]1n1cc(C(=O)Nc2cc(-c3cccnc3)ccn2)cn1 | > 99.5 µM | > 100 µM
CCS(=O)(=O)c1ccc(Cl)cc1[C@H](Nc1ccc2c(c1)CNC2)C(=O)NCC(F)F | > 99.5 µM | > 100 µM
COc1ccc(-c2nc3c(C(=O)Nc4ccc5c(c4)CNC5)cc(F)cc3[nH]2)nn1 | 11.4 µM and 19.1 µM and 8.41 µM | 32 µM and 19 µM and 38 µM and 36.5 µM
Cc1c(C(=O)Nc2cc(C(=O)N[C@H]3CCOC3)ccn2)cc(C2CC2)n1C | > 99.5 µM | > 100 µM
Cc1c(C(=O)Nc2cc(C(=O)N3C[C@@H]4[C@H](O)[C@@H]4C3)ccn2)cc(C2CC2)n1C | > 99.5 µM | > 100 µM
Cc1c(C(=O)Nc2cc(C(=O)N3CC[C@H](C(N)=O)C3)ccn2)cc(C2CC2)n1C | > 99.5 µM | > 100 µM
O=C1Cc2c(cccc2C(=O)NC2CCC3(CC2)COC3)N1 | > 99.5 µM | > 100 µM
Cc1c(C(=O)Nc2cc(C(=O)N[C@H]3CCNC3=O)ccn2)cc(C2CC2)n1C | > 99.5 µM | > 100 µM
Cc1c(C(=O)Nc2cc(C(=O)N3CC[C@H]3CO)ccn2)cc(C2CC2)n1C | > 99.5 µM | > 100 µM
COc1cc(Cl)cc([C@H](Nc2ccc3c(c2)CNC3)C(=O)NCC(F)F)c1 | > 99.5 µM | > 100 µM
Cc1cc(CN)cc(NC(=O)c2cccc3c2CC(=O)N3)c1 | 75.9 µM | > 100 µM
Cc1c(C(=O)Nc2cc(C(=O)N(C)C3COC3)ccn2)cc(C2CC2)n1C | > 99.5 µM | > 100 µM
CC(C)n1cnc2cc(C(=O)Nc3ccc4c(c3)CNC4)ccc21 | > 99.5 µM | > 100 µM
O=C1Cc2c(cccc2C(=O)Nc2ccc(Cl)c(CO)n2)N1 | > 99.5 µM | > 100 µM
Cc1c(C(=O)Nc2cc(C(=O)Nc3cccnc3)ccn2)cc(C2CC2)n1C | > 99.5 µM | > 100 µM
O=C(NCC(F)F)[C@H](Nc1ccc2c(c1)CNC2)c1cc(Cl)cc(Cl)c1Cl | > 99.5 µM | > 100 µM
O=C(Nc1ccc2c(c1)CNC2)c1cc(F)cc(-c2cnc3n2CCC3)c1 | > 99.5 µM | > 100 µM
C[C@]1(OCCO)C(=O)Nc2cc(F)cc(C(=O)Nc3ccc4c(c3)CNC4)c21 | > 99.5 µM | > 100 µM
